{
  "source": "patent US9879036B2",
  "about": "“Mitochondrial aldehyde dehydrogenase-2 binding compounds and methods of use thereof” (Aviv Therapeutics, Inc., priority 2014, dated 2018)",
  "system": "FANCA deficiency lymphocyte cell line (FANCA B-lymphocyte, GM13022)",
  "assay": "Proliferation of FANCA deficient lymphocytes under 4 HNE challenge (alamarBlue)",
  "type": "cell-based",
  "procedure": "FANCA deficiency lymphocyte cell line (Fanconi Anemia, Complementation Group A, FANCA B-lymphocyte, GM13022) was purchased from Coriell Cell Repositories (403 Haddon Ave, Camden, N.J. 08103).\nStandard cell culture conditions were used in this experiment. The culture medium (CM) consisted of culture medium RPMI1640, 15% heat-inactivated FBS, 2 mM L-glutamine, 1% Pen/Strep. Cells were suspended in 10-20 ml CM in T25 tissue culture flask in an upright position and incubated in a 37° C., 5% CO2 incubator. Cells were counted daily and diluted with fresh CM to 3×10^5 cells/ml. Cells thawed and maintained in culture for 3-12 days were used in these studies.\nCell densities of FANCA lymphocytes were determined and cells were diluted in RPMI1640 medium containing 15% FBS, 2 mM L-glutamine, 1% Pen/Strep to desired cell density. 4000 cells in 50-75 μl were plated onto each well in total 48 wells in columns 3-10 and rows B-G. This plating arrangement provided 6-replicates per column for each experimental condition. Plate was then centrifuged at 500 rpm for 2 min to ensure better distribution of cells across the well. For background medium controls, equal volume (50-75 μl) of dilution medium were added to wells B2, C2, D2.\nFor minimizing cells/medium drying in sample wells, 150 μl of 1×DPBS was added to each well of the 45 wells surrounding the sample and control wells. Plate was then incubated in a 37° C. 5% CO2 incubator for at least 4 hours before addition of new reagent.\nCompounds were diluted from 20 mM stocks in DMSO with RPMI1640 medium containing 15% FBS. RPMI1640 medium containing 15% FBS and corresponding volume of DMSO was used as controls.\n4 HNE (64 mM in 100% ethanol) was diluted to desired concentrations with RPMI1640 base medium.\nAlamarBlue was added to each well to final 9.1 or 10% of the total volume in each well. Plate was further incubated in the 37° C. 5% CO2 incubator. The alamarBlue assay is designed to measure quantitatively the proliferation of human and animal cell lines in culture versus incubation time period.\nPlate was removed from the CO2 incubator at a pre-designated time and placed in the microplate reader. The fluorescence level in each well was monitored at Ex 554 nm and Em 590 nm. Afterwards the numeric numbers/units were used for data analyses.\nFluorescence units in all wells were acquired by the microplate reader at each time point. Data were then exported to scientist's computer equipped with SoftMax ProS software. The average of Background units (Blk, 3×) and the average of each sample set (6 replicates) were determined. For data collected at each time point (cell culture incubation period), the average of Blk units were subtracted from the average of each set of the Sample units. These “net fluorescence unit” data were then presented in a plot consisted of different culture incubation time periods (the x-axis) versus the corresponding net fluorescence units (y-axis).\nThe “net fluorescence units” of each sample set were also compared to those of the “control” at each time point. “Control fluorescence units” were considered to be 100% at all the time points. Each set of “net fluorescence units” were divided by the “Control fluorescent units” and multiplied by 100 to obtain corresponding percentages. These “relative percentage” data were then presented in a plot consisted of time points (the x-axis) versus the corresponding relative percentages to control of 100 (y-axis).\nThe inhibitory effect of 4 HNE on the proliferation of FANCA lymphocytes was examined. 4000 cells in 75 μl of RPMI1640 medium containing 15% FBS were plated onto each sample well in a 96-well poly D-lysine coated black/clear cell culture plate and the plate was incubated in a 37° C. 5% CO2 incubator for 7 hours.\nStock of 4 HNE at 64 mM was diluted with RPMI1640 medium to 10 μM, 20 μM, 30 μM, 40 μM, 60 μM, 80 μM, and 120 μM. […]",
  "note": "“Also recorded” adds a separate entry of the source.",
  "data": [
    {"smiles": "COc1ccc(CNC(=O)c2cc(-c3ncccc3CO)ccc2OCC2CC2)cc1F", "note": "[AC6]", "values": [
      {"measurement": "duration of cell-protective / cell growth promoting effect in FANCA cells", "result": "at least 48 hours"},
      {"measurement": "relative cell proliferation versus control without AC compounds", "setting": "3.5 μM 4 HNE, 5 μM and 10 μM AC6, 10 μM AC32, 25 hours to 48 hours after 4 HNE treatment", "result": "higher levels of cell growth than “control”; also recorded: more efficient growth than control"},
      {"measurement": "cell proliferation rate", "setting": "10 μM AC6, 6 μM 4 HNE, between 25 and 48 hours after 4 HNE treatment", "result": "an increase in the cell proliferation rate"},
      {"measurement": "FANCA-deficiency lymphocyte cell growth versus 4 HNE only or 2 μM ALDH2 activators", "setting": "10 μM compound, pretreatment 2 hours before 6 μM 4 HNE challenge", "result": "higher levels of cell growth"},
      {"measurement": "FANCA-deficiency lymphocyte cell growth versus 4 HNE only", "setting": "pretreatment 2 hours before 3.5 μM 4 HNE challenge, 2 to 10 μM compound", "result": "higher levels of cell growth; also recorded: higher efficacy than AC32"}
    ]}
  ]
}
